From US20110217300A1, “Quinazolinone Compounds and Methods of Use Thereof” (priority 2007, published 2011) come the findings set out here.

In general, GI50 refers to the concentration that inhibits growth by half. One may read the pIC50 as the IC50 on a negative log10 scale, so that one unit is a factor of ten.

One test relates to A549. Put plainly: MTS cell viability assay. The test is classed as cell-based. As to conditions: Homo sapiens, A549, 72 h, read-out: MTS NCI A549 GI50. In short, it runs like this: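 A549 and a second human cancer line seeded in DMEM/10% FBS, allowed 16–24 h to attach, then exposed 72 h at 37 °C, 5% CO2 to serially diluted compound (final DMSO 0.33%). Viability measured by MTS.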
A general note: Formazan colour is commonly taken as a measure of viable cells.

Another test addresses T1, HsEg5 (Homo sapiens, UniProt P52732).
T1 sequence (P52732 18-359 limits assumed): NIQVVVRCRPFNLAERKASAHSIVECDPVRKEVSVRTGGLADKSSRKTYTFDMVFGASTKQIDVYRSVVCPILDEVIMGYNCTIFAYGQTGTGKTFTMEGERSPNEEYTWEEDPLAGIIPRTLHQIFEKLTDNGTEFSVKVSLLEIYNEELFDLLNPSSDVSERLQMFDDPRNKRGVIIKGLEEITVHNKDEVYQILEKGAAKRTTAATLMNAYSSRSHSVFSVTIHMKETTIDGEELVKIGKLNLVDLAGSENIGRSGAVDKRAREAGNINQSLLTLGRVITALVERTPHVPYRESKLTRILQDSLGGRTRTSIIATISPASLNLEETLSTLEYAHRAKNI
As to the kind of experiment: Luminescent detection of HsEg5 ATPase activity (Kinase-Glo Plus). The test is classed as biochemical. As to the method: Purified HsEg5 motor fragment was activated by mixture with preformed MT polymer (Cytoskeleton, Denver, Colo.) at room temperature for 20 minutes. MT activated ATPase activity was measured using Kinase-Glo® Plus Luminescent Kinase Assay (Promega, Madison, Wis.).
For inhibitor screening, 5 μL of compounds were incubated with 20 μL of MT-activated HsEg5 such that the final concentrations for compound range from 100 μM to 5 nM (1 to 3 serial dilutions, final concentration) and final concentration for HsEg5 is 25 nM. The mixture was incubated at room temperature for 20 minutes with mild shaking. The screening assay contained 0.3% DMSO in all reaction wells. We used wells containing only DMSO as negative controls and wells without ATP as background. Addition of 15 μL of 13 μM ATP (final concentration of 5 μM) initiated the ATP hydrolysis reaction. The 40 μL-reaction was allowed to proceed at room temperature for 45 minutes before addition of 40 μL of Kinase®-Glo Plus. After 15-minute development at room temperature, the luminescent was measured.
Eg5 IC50 data was generated using both fluorescence and Luminescence detection assays as described above. Compounds I-69 were screened using automated fluorescence assay while compounds 70-83 were screened using Luminescence detection assay. (See reference “Zhang B, Senator D, Wilson C J, Ng S C. (2005) “Development of a high-throughput robotic fluorescence-based assay for HsEg5 inhibitor screening” Anal Biochem. 345:326-335″).
(Kinase-Glo reads ATP consumption through a luciferase reaction.)

A further test concerns NCI-H460. Put plainly: MTS cell viability assay. The test is classed as cell-based, human. Particulars: Homo sapiens, NCI-H460, 72 h, read-out: MTS NCI H460 GI50. A digest of the protocol:
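72 h compound treatment, 0.33% DMSO; […] PMS 7.67 mg/L, 4 h; 1.4% SDS; […]. Cells 100-5000/well, 37° C., 5% CO2. Output GI50, ≥2 replicates.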

SMILES strings stand for the structures. pIC50: −log10 of the molar value.

Turning to `C#CC[C@H](c1nc2cc(Cl)ccc2c(=O)n1Nc1ccccc1)N(CCCN)C(=O)c1cc(F)cc(F)c1F` [Compound 81, (R)—N-(3-Aminopropyl)-N-(1-(7-chloro-4-oxo-3-(phenylamino)-3,4-dihydroquinazolin-2-yl)but-3-ynyl)-2,3,5-trifluorobenzamide], the GI50 is 660 nM in the test with A549 and 340 nM in the test with NCI-H460. In addition, the negative-log IC50 (pIC50) at HsEg5 is 6.80.
In the case of `C#CC[C@H](c1nc2cc(Cl)ccc2c(=O)n1Nc1ccccc1)N(CCCN)C(=O)c1c(F)cc(Cl)cc1F` [Compound 79], the concentration for 50% growth inhibition (GI50) was 1300 nM in the test on A549 and 430 nM in the test on NCI-H460. Besides, the negative-log IC50 (pIC50) on HsEg5 is 6.26.
For `C#CC[C@H](c1nc2cc(Cl)ccc2c(=O)n1Nc1ccccc1)N(CCCN)C(=O)c1ccc(C)c(F)c1F` [Compound 76, N-(3-Amino-propyl)-N—[(R)-1-(7-chloro-4-oxo-3-phenylamino-3,4-dihydro-quinazolin-2-yl)-but-3-ynyl]-2,3-difluoro-4-methyl-benzamide], the GI50 was 1300 nM in the test on A549 and 860 nM in the test with NCI-H460. Further, the pIC50 at HsEg5 is 6.89.
The like results for `C#CC[C@H](c1nc2cc(Cl)ccc2c(=O)n1Nc1ccccc1)N(CCCN)C(=O)c1cc2ccccc2s1` [Compound 73, (R)—N-(3-Aminopropyl)-N-(1-(7-chloro-4-oxo-3-(phenylamino)-3,4-dihydroquinazolin-2-yl)but-3-ynyl)benzo[b]thiophene-2-carboxamide] were, in that order, 490 nM, 330 nM and 6.92.
The like results for `C#CC[C@H](c1nc2cc(Cl)ccc2c(=O)n1Nc1ccccc1)N(CCCN)C(=O)c1ccc(C)cc1` [Compound 75, N-(3-Amino-propyl)-N—[(R)-1-(7-chloro-4-oxo-3-phenylamino-3,4-dihydro-quinazolin-2-yl)-but-3-ynyl]-4-methyl-benzamide] were, in that order, 2800 nM, 1500 nM and 7.05.
On to `C#CC[C@H](c1nc2cc(Cl)ccc2c(=O)n1Nc1ccccc1)N(CCCN)C(=O)c1ccc(OC)c(F)c1F` [Compound 78], for which the figures for the concentration for 50% growth inhibition (GI50) in the test on A549 and with NCI-H460 were 1450 nM and 700 nM, respectively. The pIC50 on HsEg5 was 7.40.
The like results for `C#CC[C@H](c1nc2cccnc2c(=O)n1Nc1ccccc1)N(CCCN)C(=O)c1cccc(Cl)c1F` [Compound 83, (R)—N-(3-Aminopropyl)-3-chloro-2-fluoro-N-(1-(4-oxo-3-(phenylamino)-3,4-dihydropyrido[3,2-d]pyrimidin-2-yl)but-3-ynyl)benzamide] were, in that order, above 100000 nM, 27000 nM and 5.18.
Taken in the same sequence, the figures for `C#CC[C@H](c1nc2cc(Cl)ccc2c(=O)n1Nc1ccccc1)N(CCCN)C(=O)c1c(F)c(F)cc(F)c1F` [Compound 71] were 840 nM, 320 nM and 6.80.
